Source: patent US9833497B2, “Human originated EGF domain proteins and use of the same” (CHENGDU SOURCEBIO LIMITED-LIABILITY COMPANY, priority 2013, dated 2017)

Columns and labels:
Type in all cases: cell-based
[1] = test system: E. coli DH5α; experiment: Antibacterial activity: MIC and growth curve against E. coli DH5α in 96-well plate; settings: minimal inhibitory concentration against E. coli DH5α; 96-well plate, 5×10^5 CFU/mL, 37° C., judged after 8 h
How it was run: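 MIC taken as lowest protein level with no bacterial growth, tracked by A600 every 30 min during 37 °C, 175 rpm culture. Two-fold protein series 50-12.5 μg/mL final, triplicate wells, against 5×10^5 CFU/mL of LB-washed mid-log cells.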

[2] = test system: E. coli BL21; experiment: MIC against Gram-negative bacteria: E. coli BL21; settings: E. coli BL21, 5×10^5 CFU/mL
How it was run: (§1)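 MIC = lowest concentration of recombinant protein showing no growth. Test proteins: purified human-derived EGF domain proteins, two-fold dilution series, three wells per concentration; inoculum 5×10^5 CFU/mL in LB; incubation 37° C with shaking at 175 rpm.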

[3] = test system: Pseudomonas aeruginosa; experiment: MIC against Gram-negative bacteria: Pseudomonas aeruginosa; settings: 5×10^5 CFU/mL
How it was run: as §1

[4] = test system: Klebsiella pneumonia; experiment: MIC against Gram-negative bacteria: Klebsiella pneumonia; settings: 5×10^5 CFU/mL
How it was run: as §1

[5] = test system: Enterobacter cloacae; experiment: MIC against Gram-negative bacteria: Enterobacter cloacae; settings: 5×10^5 CFU/mL
How it was run: as §1

[6] = test system: Aeromonas hydrophila; experiment: MIC against Gram-negative bacteria: Aeromonas hydrophila; settings: 5×10^5 CFU/mL
How it was run: as §1

[7] = test system: Citrobacter diversus; experiment: MIC against Gram-negative bacteria: Citrobacter diversus; settings: 5×10^5 CFU/mL
How it was run: as §1

[8] = test system: Moraxella catarrhalis; experiment: MIC against Gram-negative bacteria: Moraxella catarrhalis; settings: 5×10^5 CFU/mL
How it was run: as §1

[9] = test system: Proteus mirabilis; experiment: MIC against Gram-negative bacteria: Proteus mirabilis; settings: 5×10^5 CFU/mL
How it was run: as §1

[10] = test system: Proteus vulgaris; experiment: MIC against Gram-negative bacteria: Proteus vulgaris; settings: 5×10^5 CFU/mL
How it was run: as §1

[11] = test system: Serratia marcescens; experiment: MIC against Gram-negative bacteria: Serratia marcescens; settings: 5×10^5 CFU/mL
How it was run: as §1

[12] = Pseudomonas aeruginosa, 96-well plate, 37° C., 10 h
[13] = Klebsiella pneumonia, 96-well plate, 37° C., 10 h
[14] = Enterobacter cloacae, 96-well plate, 37° C., 10 h
[15] = Aeromonas hydrophila, 96-well plate, 37° C., 10 h
[16] = Citrobacter diversus, 96-well plate, 37° C., 10 h
[17] = Moraxella catarrhalis, 96-well plate, 37° C., 10 h
[18] = Proteus mirabilis, 96-well plate, 37° C., 10 h
[19] = Proteus vulgaris, 96-well plate, 37° C., 10 h
[20] = Serratia marcescens, 96-well plate, 37° C., 10 h
[21] = P. aeruginosa, 10 h cultivation at 37° C.
[22] = K. pneumonia, 10 h cultivation at 37° C.
[23] = E. cloacae, 10 h cultivation at 37° C.
[24] = A. hydrophila, 10 h cultivation at 37° C.
[25] = C. diversus, 10 h cultivation at 37° C.
[26] = M. catarrhalis, 10 h cultivation at 37° C.
[27] = P. mirabilis, 10 h cultivation at 37° C.
[28] = P. vulgaris, 10 h cultivation at 37° C.
[29] = S. marcescens, 10 h cultivation at 37° C.

PRT107 (DRCLPSYCEHGGECSQSWDTFSCDCLGTGYTGETC; listed as Homo sapiens)
12.5 µg/mL: MIC [1] | MIC (μg/mL) E. coli BL21 ([2]; 96-well plate, 37° C., 10 h) | MIC (μg/mL) P. aeruginosa [3, 12] | MIC (μg/mL) K. pneumonia [4, 13] | MIC (μg/mL) E. cloacae [5, 14] | MIC (μg/mL) M. catarrhalis [8, 17] | MIC (μg/mL) S. marcescens [11, 20]
25 µg/mL: MIC (μg/mL) C. diversus [7, 16] | MIC (μg/mL) P. mirabilis [9, 18]
50 µg/mL: MIC (μg/mL) A. hydrophila [6, 15] | MIC (μg/mL) P. vulgaris [10, 19]

PRT1210 (SVNPCSSKPCLYGGTCVVDNGGFVCQCRGLYTGQRCQ; listed as Homo sapiens)
25 µg/mL: MIC [1] | MIC against P. aeruginosa [3, 12] | MIC against E. cloacae [5, 14] | MIC against A. hydrophila [6, 15] | MIC against M. catarrhalis [8, 17] | MIC against P. vulgaris [10, 19]
12.5 µg/mL: MIC against E. coli BL21 ([2]; 96-well plate, 37° C., 10 h) | MIC against K. pneumonia [4, 13] | MIC against C. diversus [7, 16] | MIC against P. mirabilis [9, 18] | MIC against S. marcescens [11, 20]

PRT1375 (SIRTCPSNCHGRGRCEEGRCLCDPGYTGPTC; listed as Homo sapiens)
25 µg/mL: MIC against A. hydrophila ([6]; Aeromonas hydrophila, 10 h cultivation at 37° C.) | MIC against M. catarrhalis ([8]; Moraxella catarrhalis, 10 h cultivation at 37° C.) | MIC against P. vulgaris ([10]; Proteus vulgaris, 10 h cultivation at 37° C.)
12.5 µg/mL: MIC [1] | MIC against E. coli BL21 ([2]; 10 h cultivation at 37° C.) | MIC against P. aeruginosa ([3]; Pseudomonas aeruginosa, 10 h cultivation at 37° C.) | MIC against K. pneumonia ([4]; Klebsiella pneumonia, 10 h cultivation at 37° C.) | MIC against E. cloacae ([5]; Enterobacter cloacae, 10 h cultivation at 37° C.) | MIC against C. diversus ([7]; Citrobacter diversus, 10 h cultivation at 37° C.) | MIC against S. marcescens ([11]; Serratia marcescens, 10 h cultivation at 37° C.)
50 µg/mL: MIC against P. mirabilis ([9]; Proteus mirabilis, 10 h cultivation at 37° C.)

PRT174 (CASSPCANGGTCRDGVNDFSCTCPPGYTGRNC; listed as Homo sapiens)
50 µg/mL: MIC [1] | MIC (μg/mL) K. pneumonia [4, 22] | MIC (μg/mL) M. catarrhalis [8, 26] | MIC (μg/mL) P. vulgaris [10, 28]
25 µg/mL: MIC (μg/mL) P. aeruginosa [3, 21] | MIC (μg/mL) E. cloacae [5, 23] | MIC (μg/mL) C. diversus [7, 25]
12.5 µg/mL: MIC (μg/mL) E. coli BL21 ([2]; 10 h cultivation at 37° C.) | MIC (μg/mL) A. hydrophila [6, 24] | MIC (μg/mL) P. mirabilis [9, 27] | MIC (μg/mL) S. marcescens [11, 29]

PRT191 (PCLRKYKDFCIHGECKYVKELRAPSCICHPGYHGERCH; listed as Homo sapiens)
25 µg/mL: MIC (μg/mL) E. cloacae [5, 23] | MIC (μg/mL) C. diversus [7, 25]
50 µg/mL: MIC (μg/mL) P. vulgaris [10, 28]
12.5 µg/mL: MIC [1] | MIC (μg/mL) E. coli BL21 ([2]; 10 h cultivation at 37° C.) | MIC (μg/mL) P. aeruginosa [3, 21] | MIC (μg/mL) K. pneumonia [4, 22] | MIC (μg/mL) A. hydrophila [6, 24] | MIC (μg/mL) M. catarrhalis [8, 26] | MIC (μg/mL) P. mirabilis [9, 27] | MIC (μg/mL) S. marcescens [11, 29]

PRT268 (SFKCRCDSGFALDSEERNCTDIDE; listed as Homo sapiens)
12.5 µg/mL: MIC [1] | MIC (μg/mL) P. aeruginosa [3, 21] | MIC (μg/mL) C. diversus [7, 25] | MIC (μg/mL) P. vulgaris [10, 28] | MIC (μg/mL) S. marcescens [11, 29]
50 µg/mL: MIC (μg/mL) E. cloacae [5, 23] | MIC (μg/mL) P. mirabilis [9, 27]
25 µg/mL: MIC (μg/mL) E. coli BL21 ([2]; 10 h cultivation at 37° C.) | MIC (μg/mL) K. pneumonia [4, 22] | MIC (μg/mL) A. hydrophila [6, 24] | MIC (μg/mL) M. catarrhalis [8, 26]
